Test [1] is described as follows: microbe, parasite or virus in culture. The note with it: Mycobacterium tuberculosis, 72 h, read-out: pIC50 (converted).
A short description of test [2]: microbe, parasite or virus in culture. The note with it: Mycobacterium tuberculosis, 96 h, read-out: pIC50 (converted).

Bounds are passed on as bounds.

`CSCCC(=O)N(C)Cc1cccc(-n2cccn2)c1`: the figures for the IC50 in test [1] and in test [2] were 269 µM and 286 µM, respectively.
The matching figures for `CCC1c2ccsc2CCN1C(=O)c1ccc(CN)o1` (centres undefined): 167 µM and 370 µM.
For the compound `CC(C)c1ccc(OCn2ccc(C(=O)N3CCCC3)n2)cc1`, the figures for the IC50 in test [1] and in test [2] were 26.5 µM and 24.5 µM, respectively.
`CCCn1nnc(NCc2ccc(OC)cc2)n1`: the IC50 in test [1] was 115 µM; in test [2] it was 25.1 µM.
The matching figures for `COc1cccc2c1CCCCN2C(=O)c1oc(C)nc1C`: above 50.1 µM and above 50.1 µM.
`NCc1cccc2cc[nH]c12`: the IC50 was 245 µM in test [1] and 261 µM in test [2].
As for `NCC(CO)Cc1ccsc1` (centres undefined), the IC50 is 122 µM in test [1] and 176 µM in test [2].
As for `NCc1cccc(OCc2ccccn2)c1`, the figures for the IC50 in test [1] and in test [2] were 187 µM and above 501 µM, respectively.
Consider `CC(C)(C)OC(=O)N1CC(F)(F)CC1CO` (centres undefined), for which the IC50 in test [1] and in test [2] was above 501 µM in each case.
With `O=C1CNc2ncnc(N3CCN(c4ccccc4F)CC3)c2N1`, the IC50 in test [1] and in test [2] was above 50.1 µM in each case.
`COCCCOC1CN(C(=O)c2ccc(Cl)cn2)C1`: the IC50 in test [1] was 2.73 µM; in test [2], 84.6 µM.
For `COc1cc(OC)c(NC(=O)Cn2ccnc2)cc1Cl`, the IC50 in test [1] was 243 µM; in test [2], 264 µM.
The matching figures for `CCOc1cc([C@H]2N[C@@H](c3nc(C)cs3)Cc3ccsc32)ccc1OC`: 12.8 µM and above 50.1 µM.
On to `COc1cccc(Nc2ccc(N)nc2)c1`, for which the values for the IC50 in test [1] and in test [2] were 128 µM and 241 µM, respectively.
For `O=C(CNc1ccccc1F)N1CCCCC1`, the values for the IC50 in test [1] and in test [2] were 71.6 µM and 36.6 µM, respectively.
The matching figures for `NCc1cc(N[C@H](CO)CC2CCCCC2)ncn1`: 296 µM and above 501 µM.
On to `CC(=O)Nc1ccc(N2CCCCC2)nc1`, for which the IC50 in test [1] is 97.2 µM; in test [2] it was 95.3 µM.
For the compound `CCCC(C)NC(=O)c1coc(C)n1` (centres undefined), the IC50 in test [1] and in test [2] was above 501 µM throughout.
Regarding `CCC(=O)c1cccc(S(=O)(=O)NC(CN)C2CC2)c1` (centres undefined), the IC50 in test [1] and in test [2] was above 501 µM in each case.
For `CCc1ccc(C(=O)N2CCN(Cc3ccc(F)cc3)CC2)s1`, the IC50 in test [1] was 19.9 µM; in test [2], 28.4 µM.
For `O=C(c1cc(-c2ccn(CC3CC3)n2)n2ccccc12)N1CCCO1`, the IC50 in test [1] was 3.54 µM; in test [2], 1.05 µM.
Take `COc1cccc(CNCCn2cccn2)c1OC`: the IC50 was 196 µM in test [1] and above 501 µM in test [2].
`CCCn1ccc(NC(=O)c2cccc(C#N)c2)n1`: the IC50 in test [1] and in test [2] was above 501 µM in each case.
For `COCc1ccc(SCC(=O)N(C)C)cc1`, the IC50 in test [1] and in test [2] was above 501 µM throughout.
Take `NCc1nc(-c2ccc(Cl)cc2)c[nH]1`: the values for the IC50 in test [1] and in test [2] were 128 µM and 264 µM, respectively.
For the compound `Cc1cccnc1CN(C)C(C(=O)O)c1ccc(-n2cccn2)cc1` (centres undefined), the results for the IC50 in test [1] and in test [2] were 27 µM and 20.1 µM, respectively.
Take `Cc1nc(NC(C)C)nc2c1CN(Cc1cccs1)CC2`: the IC50 in test [1] was above 50.1 µM; in test [2], 27 µM.
Regarding `O=C(c1ccco1)N1CCCN(Cc2cscn2)CC1`, the IC50 in test [1] and in test [2] was above 501 µM in each case.
As to `COCCc1noc(CNC2CCCC(C)(C)C2)n1` (centres undefined), the IC50 is 2.66 µM in test [1] and above 50.1 µM in test [2].
On to `O=C(Nc1ccccn1)C1Cc2ccccc2O1` (centres undefined), for which the IC50 was 268 µM in test [1] and 277 µM in test [2].
The matching figures for `CC(C)CNC(=O)c1cc2c(s1)CCN2Cc1cccnc1`: above 50.1 µM and above 50.1 µM.
Take `CNc1nc(C)cc(NCc2cc(C)cc3c(C)c(C)[nH]c23)n1`: the results for the IC50 in test [1] and in test [2] were 28 µM and 44.8 µM, respectively.
In the case of `CC(CCc1ccc(O)cc1)NC1(CO)CC1` (centres undefined), the IC50 was 199 µM in test [1] and above 501 µM in test [2].
Consider `CCOCCN1CCn2c(C)nnc2C1`, for which the IC50 in test [1] and in test [2] was above 50.1 µM in each case.
Take `Cc1ccc2c(c1)OC(C)CN2C(=O)c1ccccn1` (centres undefined): the IC50 in test [1] and in test [2] was above 501 µM each time.
On to `COc1ccc(CN2CC[C@@H](O)[C@@H]2Cc2cnn(C)c2)cc1`, for which the IC50 in test [1] and in test [2] was above 50.1 µM each time.
As to `Cc1cc(CN(C)CC2(O)CCCN(CCC3CCCCC3)C2=O)no1` (centres undefined), the IC50 in test [1] and in test [2] was above 50.1 µM throughout.
For the compound `O=C(CNc1ccc(Br)cc1)NCc1ncc[nH]1`, the IC50 in test [1] was 228 µM; in test [2], above 501 µM.
`COCCCNC(=O)c1coc(Br)c1`: the IC50 is 118 µM in test [1] and 116 µM in test [2].
In the case of `CN1CCCN(C(=O)COc2cccc(Cl)c2)CC1`, the figures for the IC50 in test [1] and in test [2] were 283 µM and above 501 µM, respectively.
Consider `CCNc1nnc(SC(C)C)s1`, for which the IC50 in test [1] is 120 µM; in test [2], 54.2 µM.
`OC(CN1CCn2ccnc2C1)c1cccc(F)c1` (centres undefined): the IC50 in test [1] and in test [2] was above 501 µM in each case.
For `CC(=O)c1sc(NCCc2ccccn2)nc1C`, the IC50 in test [1] and in test [2] was above 501 µM throughout.
As for `O=C(CCNCCO)c1ccccc1`, the IC50 was 137 µM in test [1] and above 501 µM in test [2].
In the case of `NCCCOc1ncc(C(F)(F)F)cc1Cl`, the IC50 in test [1] was 101 µM; in test [2], 238 µM.
As for `Cc1ccc(-c2noc([C@@H]3Cc4nc[nH]c4CN3)n2)cc1`, the IC50 in test [1] is 1.94 µM; in test [2] it was 2.31 µM.
Turning to `Cc1cccnc1NCCNC1CSCCSC1`, the IC50 in test [1] is 248 µM; in test [2] it was above 501 µM.
On to `Fc1cccc(Cl)c1CNCCOc1ccccn1`, for which the IC50 in test [1] and in test [2] was above 50.1 µM in each case.
Take `Cc1nc(C2CCCN(C(=O)c3ccc(S(C)(=O)=O)cc3)C2)no1` (centres undefined): the IC50 in test [1] and in test [2] was above 50.1 µM each time.
Consider `O=C(O)c1cc(-c2ccoc2)cc(S(=O)(=O)NC2CC2)c1`, for which the IC50 in test [1] and in test [2] was above 50.1 µM throughout.
With `CCCn1nnnc1NCc1ccsc1`, the IC50 in test [1] is 171 µM; in test [2], 132 µM.
In the case of `COc1ncc(CN2CCOC(Cc3cccc4ccccc34)C2)cn1` (centres undefined), the IC50 in test [1] and in test [2] was above 50.1 µM each time.
In the case of `C=Cc1ccc(C(=O)N2CCCC(Nc3ccc(F)c(F)c3)C2)cc1` (centres undefined), the results for the IC50 in test [1] and in test [2] were above 50.1 µM and 40.8 µM, respectively.
In the case of `CCOc1ccc(OCc2nccc(-c3cc(C(=O)O)ccn3)n2)cc1`, the IC50 in test [1] and in test [2] was above 50.1 µM throughout.
Regarding `NS(=O)(=O)NCCCc1ccc(Br)cc1F`, the results for the IC50 in test [1] and in test [2] were 151 µM and 218 µM, respectively.
For `FC(F)(F)c1ccccc1CN1CCOC[C@H](Oc2cccnc2)C1`, the figures for the IC50 in test [1] and in test [2] were 48 µM and 18.7 µM, respectively.
In the case of `CCOc1ccc(CNS(=O)(=O)N(C)C)cc1C`, the IC50 in test [1] was 262 µM; in test [2], above 501 µM.
As to `c1ccc(-c2nc(CCNCc3ccncc3)co2)cc1`, the IC50 in test [1] and in test [2] was above 50.1 µM in each case.
With `O=C1COC2(CCN(c3ccccn3)CC2)CN1`, the IC50 in test [1] and in test [2] was above 50.1 µM in each case.
For `CNC(=O)c1ccc(Cl)c(S(=O)(=O)N2CCCCC2)c1`, the IC50 in test [1] and in test [2] was above 501 µM in each case.
With `Cc1cnc(NC(=O)c2csc(NC3CCCC3)n2)s1`, the IC50 in test [1] and in test [2] was above 50.1 µM in each case.
Turning to `O=C(CNC(=O)c1cccs1)c1ccccc1`, the IC50 in test [1] and in test [2] was above 501 µM in each case.
For `CCC1(CO)CCCN(C(=O)c2ccc(COC)s2)C1` (centres undefined), the IC50 in test [1] is 148 µM; in test [2] it was 246 µM.
In the case of `Cn1nnc(NCc2ccc(-c3ccc(Br)cc3)o2)n1`, the values for the IC50 in test [1] and in test [2] were 25.3 µM and 11.9 µM, respectively.
Regarding `COc1cc(C(=O)NCCc2ccc(Cl)cc2)on1`, the IC50 in test [1] was 4.56 µM; in test [2] it was above 50.1 µM.
For the compound `CS(=O)(=O)NC[C@H]1OC[C@@H]2CCN(CCc3ccccc3)C[C@@H]21`, the IC50 in test [1] and in test [2] was above 50.1 µM throughout.
As for `CCN1CCN(C(=O)c2ccc(C)c(C)c2)CC1`, the IC50 in test [1] and in test [2] was above 501 µM each time.
Consider `NCCc1ccc(OCC(F)(F)F)nc1`, for which the IC50 is 111 µM in test [1] and 211 µM in test [2].
With `CCNC1=NN=C(c2ccc3c(c2)OCCCO3)CS1`, the values for the IC50 in test [1] and in test [2] were 274 µM and above 501 µM, respectively.
On to `O=C(c1cccnc1)N1CCC2(CC1)CNc1c(F)cccc12`, for which the IC50 in test [1] and in test [2] was above 50.1 µM throughout.
Turning to `Fc1cccc(OC2CCN(CCn3cc4ccccc4n3)CC2)c1`, the values for the IC50 in test [1] and in test [2] were above 50.1 µM and 26.1 µM, respectively.
As for `N#Cc1c(F)cccc1NCCSCCCO`, the figures for the IC50 in test [1] and in test [2] were 102 µM and 67.1 µM, respectively.
The matching figures for `CCCn1nnc(NC(=O)c2ccccc2F)n1`: 59.9 µM and above 501 µM.
Turning to `Cc1ccoc1C(=O)N1CCC(n2cc(-c3ccsc3)nn2)CC1`, the IC50 in test [1] and in test [2] was above 50.1 µM each time.
Consider `CCCn1cc(CNc2ccc(F)cn2)cn1`, for which the IC50 in test [1] was 160 µM; in test [2], 234 µM.
The matching figures for `CC(C)C(=O)NCCCNC(=O)c1ccc(F)cc1O`: 125 µM and above 501 µM.
In the case of `CC(C)c1ccc(NC(=O)C2COCCN2C)cc1` (centres undefined), the IC50 in test [1] is 151 µM; in test [2], above 501 µM.
In the same order, the values of `CCOCC(=O)NCC1(O)CCCc2ccccc21` (centres undefined) are 83.9 µM and 231 µM.
As for `NCCS(=O)(=O)N1CCc2ccccc21`, the values for the IC50 in test [1] and in test [2] were 149 µM and 240 µM, respectively.
The matching figures for `CCc1nc(CNc2ccc(C#N)nc2)cs1`: 113 µM and 96.8 µM.
Consider `NCCCOC1CCN(C(=O)c2ccc(Br)o2)CC1`, for which the figures for the IC50 in test [1] and in test [2] were 76.7 µM and above 501 µM, respectively.
Consider `Cc1cccc(C2(O)CCN(Cc3ccccc3N3CCCC3)CC2)c1`, for which the IC50 was 12.1 µM in test [1] and 20.7 µM in test [2].
